# Source: article PMC8784342, “Investigation of sugar binding kinetics of the E. coli sugar/H^+ symporter XylE using solid-supported membrane-based electrophysiology” (The Journal of Biological Chemistry, 2021)
# Where “and” joins values, the source holds several entries; their conditions need not be identical. Equal values may be shown once. Marks after values point to notes of the source that are not given here.
# Assays:
# [1] = biological target: T1, wt XylE (Escherichia coli, UniProt P0AGF4); test: biochemical; design: made in house; host or cells: E. coli BL21 DE3
# T1 sequence (P0AGF4 whole entry): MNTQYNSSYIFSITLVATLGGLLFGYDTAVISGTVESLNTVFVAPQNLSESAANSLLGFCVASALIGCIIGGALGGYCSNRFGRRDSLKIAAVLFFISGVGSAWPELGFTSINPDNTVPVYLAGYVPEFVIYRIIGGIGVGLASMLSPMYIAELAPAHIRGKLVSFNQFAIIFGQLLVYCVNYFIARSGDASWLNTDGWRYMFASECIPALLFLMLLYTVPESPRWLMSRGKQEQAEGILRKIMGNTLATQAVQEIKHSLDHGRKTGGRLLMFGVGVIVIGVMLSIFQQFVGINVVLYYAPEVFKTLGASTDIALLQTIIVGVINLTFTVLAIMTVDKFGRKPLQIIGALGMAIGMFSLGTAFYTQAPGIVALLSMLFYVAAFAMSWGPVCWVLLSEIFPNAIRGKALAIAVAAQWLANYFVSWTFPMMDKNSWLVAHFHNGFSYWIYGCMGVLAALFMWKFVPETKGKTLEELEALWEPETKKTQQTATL
# Procedure: (§1) Reconstitution of purified proteins (2–20 mg/ml) was carried out with E. coli phospholipids (Avanti Polar Lipids, E. coli polar lipid extract). Preformed liposomes (0.2–2 ml, 10 mg/ml) were dissolved in 1% (w/v) n-octyl-β-D-glucoside, and the protein suspension was mixed on ice to a concentration of 0.2 mg protein/mg lipid (LPR 5).
# (§2) Wt XylE, wt FucP, and the mutant proteins were reconstituted using overnight incubation in 400 mg/ml BioBeads (SM-2 Adsorbent Media, Bio-Rad) at 4 °C. After reconstitution, the samples were diluted to 2.5 mg/ml lipid concentration, frozen in liquid nitrogen, and stored at −80 °C. For wt LacY and mutant proteins, this procedure was not successful. We, therefore, applied the previously established n-octyl-β-D-glucoside dilution method (1:100) ([69]).
# (§3) SSM measurements were performed as described ([20], [23]). After thawing the sample and sonication in a water bath, 30 μl of proteoliposomes (2.5 mg/ml lipid at LPR 5) was allowed to adsorb for 1 to 2 h to an octadecanethiol/phosphatidylcholine hybrid bilayer on a gold surface (the sensor).
# (§4) For measurements, a single solution exchange configuration ([23]) was employed that consisted in three phases of 0.5 s duration each: Flow of nonactivating solution (NA), activating solution (A), and nonactivating solution (NA). Only the activating solution contained the sugar. When pH dependence is determined, pH of NA and A solutions during one experiment are kept constant. Between experiments using different pH values, the sensor was incubated at the new pH for 3 min to equilibrate the intraliposomal pH.
# (§5) Instruments with different time resolution were used as required. […] Currents were recorded throughout the entire time and amplified with a current amplifier set to a gain of […] and a rise time of 10 ms (low time-resolution set up) or 3 ms (high time-resolution set up).
# (§6) All NA solutions were buffered in 100 mM KPi at a given pH value. NA solutions used with LacY contained 1 mM DTT in addition. A solutions were made from NA solutions by adding the respective sugar at a given concentration to induce the symport reaction. Sugar concentration jumps initiated sugar-proton symport, and charge transfer was measured by capacitive coupling. Therefore, only transient currents were recorded.
# (§7) Each dataset represented with error bars was generated by performing the same experiment on multiple sensors (n ≥ 3). Error bars represent standard deviations of the average value. When peak currents are averaged across sensors, datasets are normalized before averaging. When the protein catalyzes transport and PSS currents are negligible, the peak current of the transient represents a good approximation of the current generated by the steady-state symport activity of the transporter. In most cases, peak currents have been used to derive kinetic and thermodynamic parameters according to the equations given in Figure 2 (KM, Imax ∼ Vmax, Hill coefficient n), Figure 4 (KD and rate constants for sugar binding kon and release koff), and Figure 6 (pKa for proton binding and pKb for proton release). Reconstruction of transporter currents for analysis of biphasic currents has been performed as described previously ([70]). This is required when transport and PSS currents are observed at the same time.
# [2] = biological target: T1, wt XylE; design: made in house; host or cells: E. coli BL21 DE3; details: relative to D-xylose in wt XylE (100%); cited from earlier work
# [3] = tested on: XylE; details: radioactively labeled sugars; read-out: KM, literature; cited from earlier work
# [4] = biological target: T2, Q175I/L297F XylE (Escherichia coli, UniProt P0AGF4, L297F/Q175I); test: biochemical
# T2 construct: made in house; host or cells: E. coli BL21 DE3
# T2 sequence (P0AGF4 whole entry Q175I/L297F): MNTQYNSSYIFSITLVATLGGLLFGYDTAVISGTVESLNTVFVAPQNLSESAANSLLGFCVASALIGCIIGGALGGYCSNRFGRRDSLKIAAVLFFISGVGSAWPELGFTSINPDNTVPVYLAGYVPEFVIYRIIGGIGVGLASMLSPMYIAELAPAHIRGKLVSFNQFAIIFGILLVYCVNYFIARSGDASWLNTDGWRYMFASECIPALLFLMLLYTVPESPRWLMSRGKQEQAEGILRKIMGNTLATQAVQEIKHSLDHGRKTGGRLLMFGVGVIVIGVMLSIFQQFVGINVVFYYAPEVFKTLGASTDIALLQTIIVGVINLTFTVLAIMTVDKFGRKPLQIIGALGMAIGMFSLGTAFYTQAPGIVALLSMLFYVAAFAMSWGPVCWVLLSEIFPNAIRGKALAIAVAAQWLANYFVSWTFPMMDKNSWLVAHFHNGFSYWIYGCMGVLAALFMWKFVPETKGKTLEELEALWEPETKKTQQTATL
# Procedure: as §1
# as §2, with “For wt LacY and mutant proteins, this procedure was not successful.” left out
# as §3, §4, §5, §6, §7
# [5] = biological target: T1, wt XylE; details: cited from earlier work
# [6] = biological target: T3, D27N XylE (Escherichia coli, UniProt P0AGF4, D27N); test: SSM-based electrophysiology, transport-deficient mutant D27N XylE (PSS currents, electrogenic binding); type: biochemical
# T3 construct: made in house; host or cells: E. coli BL21 DE3
# T3 sequence (P0AGF4 whole entry D27N): as the sequence (P0AGF4 whole entry Q175I/L297F) above, with D27N, I175Q, F297L counted along it
# Procedure: as §1, §2, §3, §4, §5, §6, §7
# [7] = biological target: T3, D27N XylE; details: cited from earlier work
# [8] = biological target: T3, D27N XylE; details: relative to D-xylose in wt XylE (100%); cited from earlier work
# [9] = biological target: XylE; design: method as in PMID 23075985; details: read-out: KD, isothermal titration calorimetry; cited from earlier work
smiles,measurement,setting,value
OC1OC[C@@H](O)[C@H](O)[C@H]1O (stereo partly drawn) [D-xylose],PSS current higher than that for D-glucose,[1]; independent of pH,165 pA
same,"Q (pC) wt, PSS transferred charge","[1]; pH 3.2, 30 mM substrate",4.0 ± 1.4 (pH 3.2) pC
same,Imax in percent of Imax of the main substrate (D-xylose),[1]; pH 7.6,100%
same,IPeak (pA) fast component,"[1]; pH 7.6, saturating substrate, transport current given as upper limit",<1800 pA
same,Radioactive counterflow activity,[2],100% ^a
same,Km,[3],100 to 500 µM
same,EC50,"[4]; EC50 (mM) (KM for transport, slow component), pH 7.6",~1.5 mM
same,Imax slow component normalized to D-xylose transport in wt XylE (100%),[4]; pH 7.6,22%
same,Imax (nA) slow component,"[4]; pH 7.6, reconstructed transporter current",0.4 ± 0.1 nA
same,IPeak (pA) fast component,"[4]; pH 7.6, saturating substrate",520 ± 90 pA
same,pKa,"[4]; reconstructed transporter currents, acidic range",4.8 ± 0.1
same,Imax,"[5]; pH 7.6, main substrate",1.8 ± 0.5 nA
same,pKa,"[5]; pH-dependent peak currents, acidic range",4.6 ± 0.2
same,pKb1,"[5]; pH-dependent peak currents, alkaline range, double titration",~7.5
same,Km,"[5]; read-out: KM (mM) Michaelis–Menten equation, pH 7.6, main substrate, in Table 3 headed EC50",~1.5 mM
same,Kd,"[6]; KD (mM) mut, pH 7.6, hyperbolic fit of peak currents, in Table 3 headed EC50",1 ± 0.1 mM
same,Kd,"[6]; KD from fit of concentration-dependent kobs, pH 7.6",5.5 ± 2.1 mM
same,Imax (nA) slow component,[6]; pH 7.6,<0.05 nA
same,"Q (pC) Mut, transferred charge","[6]; pH 7.6, 30 mM substrate",6.8 ± 1.5 (pH 7.6) pC
same,IPeak (pA) fast component,"[6]; pH 7.6, saturating substrate",500 pA and 500 ± 100 pA
same,kobs (s^−1) mut,"[6]; saturating substrate (30 mM), kobs = 1/τ, monoexponential fit, limited by time resolution",300 ± 30 s⁻¹
same,activity in uptake assay,[7],< 1%
same,Radioactive counterflow activity,[8],90%
same,Kd,[9],400 µM
